Source: patent US20220281848A1, “PYRAZOLE-SUBSTITUTED PYRROLIDINONES AS HERBICIDES” (FMC Corporation, priority 2019, published 2022)

System: plants
Experiment: Test D pre-emergence, other plants of Tables D1 and D3
Type: in vivo
Conditions: preemergent, 20 DAA
How it was run: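 Seeds treated with herbicide safener; sown in soil; glasshouse, 16 h light, 65% humidity. Sprayed day 1 (pre) or ~day 12 (post). Spray in 0.2% v/v adjuvant. Scored 0–100 damage: 20 DAA pre, 15 d post.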

CCn1nc([C@@H]2CN(C)C(=O)[C@H]2C(=O)Nc2cccc(F)c2F)c2cccc(F)c21 [Compound 14]
damage to plant (100=total damage to plant; 0=no damage to plant), ABUTH (rate 15): 0
damage to plant (100=total damage to plant; 0=no damage to plant), ABUTH (rate 30): 0
damage to plant (100=total damage to plant; 0=no damage to plant), ABUTH (rate 60): 0
damage to plant (100=total damage to plant; 0=no damage to plant), ABUTH (rate 130): 0
damage to plant (100=total damage to plant; 0=no damage to plant), ABUTH (rate 250): 10
damage to plant (100=total damage to plant; 0=no damage to plant), ABUTH (rate 500): 20
damage to plant (100=total damage to plant; 0=no damage to plant), AMARE (rate 15): 0
damage to plant (100=total damage to plant; 0=no damage to plant), AMARE (rate 30): 0
damage to plant (100=total damage to plant; 0=no damage to plant), AMARE (rate 60): 0
damage to plant (100=total damage to plant; 0=no damage to plant), AMARE (rate 130): 0
damage to plant (100=total damage to plant; 0=no damage to plant), AMARE (rate 250): 0
damage to plant (100=total damage to plant; 0=no damage to plant), AMARE (rate 500): 0
damage to plant (100=total damage to plant; 0=no damage to plant), BIDPI (rate 15): 0
damage to plant (100=total damage to plant; 0=no damage to plant), BIDPI (rate 30): 0
damage to plant (100=total damage to plant; 0=no damage to plant), BIDPI (rate 60): 0
damage to plant (100=total damage to plant; 0=no damage to plant), BIDPI (rate 130): 0
damage to plant (100=total damage to plant; 0=no damage to plant), BIDPI (rate 250): 0
damage to plant (100=total damage to plant; 0=no damage to plant), BIDPI (rate 500): 0
damage to plant (100=total damage to plant; 0=no damage to plant), BRAPL (rate 15): 30
damage to plant (100=total damage to plant; 0=no damage to plant), BRAPL (rate 30): 40
damage to plant (100=total damage to plant; 0=no damage to plant), BRAPL (rate 60): 60
damage to plant (100=total damage to plant; 0=no damage to plant), BRAPL (rate 130): 90
damage to plant (100=total damage to plant; 0=no damage to plant), BRAPL (rate 250): 90
damage to plant (100=total damage to plant; 0=no damage to plant), BRAPL (rate 500): 90
damage to plant (100=total damage to plant; 0=no damage to plant), CYPES (rate 15): 0
damage to plant (100=total damage to plant; 0=no damage to plant), CYPES (rate 30): 0
damage to plant (100=total damage to plant; 0=no damage to plant), CYPES (rate 60): 0
damage to plant (100=total damage to plant; 0=no damage to plant), CYPES (rate 130): 0
damage to plant (100=total damage to plant; 0=no damage to plant), CYPES (rate 250): 0
damage to plant (100=total damage to plant; 0=no damage to plant), CYPES (rate 500): 0
damage to plant (100=total damage to plant; 0=no damage to plant), DIGSA (rate 15): 60
damage to plant (100=total damage to plant; 0=no damage to plant), DIGSA (rate 30): 80
damage to plant (100=total damage to plant; 0=no damage to plant), DIGSA (rate 60): 90
damage to plant (100=total damage to plant; 0=no damage to plant), DIGSA (rate 130): 90
damage to plant (100=total damage to plant; 0=no damage to plant), DIGSA (rate 250): 90
damage to plant (100=total damage to plant; 0=no damage to plant), DIGSA (rate 500): 90
damage to plant (100=total damage to plant; 0=no damage to plant), ECHCG (rate 15): 30
damage to plant (100=total damage to plant; 0=no damage to plant), ECHCG (rate 30): 50
damage to plant (100=total damage to plant; 0=no damage to plant), ECHCG (rate 60): 70
damage to plant (100=total damage to plant; 0=no damage to plant), ECHCG (rate 130): 90
damage to plant (100=total damage to plant; 0=no damage to plant), ECHCG (rate 250): 90
damage to plant (100=total damage to plant; 0=no damage to plant), ECHCG (rate 500): 90
damage to plant (100=total damage to plant; 0=no damage to plant), ELEIN (rate 15): 0
damage to plant (100=total damage to plant; 0=no damage to plant), ELEIN (rate 30): 0
damage to plant (100=total damage to plant; 0=no damage to plant), ELEIN (rate 60): 0
damage to plant (100=total damage to plant; 0=no damage to plant), ELEIN (rate 130): 0
damage to plant (100=total damage to plant; 0=no damage to plant), ELEIN (rate 250): 0
damage to plant (100=total damage to plant; 0=no damage to plant), ELEIN (rate 500): 0
damage to plant (100=total damage to plant; 0=no damage to plant), EPHHL (rate 15): 0
damage to plant (100=total damage to plant; 0=no damage to plant), EPHHL (rate 30): 0
damage to plant (100=total damage to plant; 0=no damage to plant), EPHHL (rate 60): 0
damage to plant (100=total damage to plant; 0=no damage to plant), EPHHL (rate 130): 0
damage to plant (100=total damage to plant; 0=no damage to plant), EPHHL (rate 250): 10
damage to plant (100=total damage to plant; 0=no damage to plant), EPHHL (rate 500): 20
damage to plant (100=total damage to plant; 0=no damage to plant), GLXMA (rate 15): 0
damage to plant (100=total damage to plant; 0=no damage to plant), GLXMA (rate 30): 0
damage to plant (100=total damage to plant; 0=no damage to plant), GLXMA (rate 60): 0
damage to plant (100=total damage to plant; 0=no damage to plant), GLXMA (rate 130): 0
damage to plant (100=total damage to plant; 0=no damage to plant), GLXMA (rate 250): 0
damage to plant (100=total damage to plant; 0=no damage to plant), GLXMA (rate 500): 0
damage to plant (100=total damage to plant; 0=no damage to plant), IPOHE (rate 15): 0
damage to plant (100=total damage to plant; 0=no damage to plant), IPOHE (rate 30): 0
damage to plant (100=total damage to plant; 0=no damage to plant), IPOHE (rate 60): 0
damage to plant (100=total damage to plant; 0=no damage to plant), IPOHE (rate 130): 0
damage to plant (100=total damage to plant; 0=no damage to plant), IPOHE (rate 250): 0
damage to plant (100=total damage to plant; 0=no damage to plant), IPOHE (rate 500): 0
damage to plant (100=total damage to plant; 0=no damage to plant), ORYSA (rate 15): 0
damage to plant (100=total damage to plant; 0=no damage to plant), ORYSA (rate 30): 0
damage to plant (100=total damage to plant; 0=no damage to plant), ORYSA (rate 60): 0
damage to plant (100=total damage to plant; 0=no damage to plant), ORYSA (rate 130): 0
damage to plant (100=total damage to plant; 0=no damage to plant), ORYSA (rate 250): 0
damage to plant (100=total damage to plant; 0=no damage to plant), ORYSA (rate 500): 0
damage to plant (100=total damage to plant; 0=no damage to plant), PANMI (rate 15): 0
damage to plant (100=total damage to plant; 0=no damage to plant), PANMI (rate 30): 0
damage to plant (100=total damage to plant; 0=no damage to plant), PANMI (rate 60): 0
damage to plant (100=total damage to plant; 0=no damage to plant), PANMI (rate 130): 0
damage to plant (100=total damage to plant; 0=no damage to plant), PANMI (rate 250): 30
damage to plant (100=total damage to plant; 0=no damage to plant), PANMI (rate 500): 80
damage to plant (100=total damage to plant; 0=no damage to plant), SETFA (rate 15): 30
damage to plant (100=total damage to plant; 0=no damage to plant), SETFA (rate 30): 70
damage to plant (100=total damage to plant; 0=no damage to plant), SETFA (rate 60): 80
damage to plant (100=total damage to plant; 0=no damage to plant), SETFA (rate 130): 80
damage to plant (100=total damage to plant; 0=no damage to plant), SETFA (rate 250): 90
damage to plant (100=total damage to plant; 0=no damage to plant), SETFA (rate 500): 90
damage to plant (100=total damage to plant; 0=no damage to plant), SIDSP (rate 15): 10
damage to plant (100=total damage to plant; 0=no damage to plant), SIDSP (rate 30): 10
damage to plant (100=total damage to plant; 0=no damage to plant), SIDSP (rate 60): 30
damage to plant (100=total damage to plant; 0=no damage to plant), SIDSP (rate 130): 30
damage to plant (100=total damage to plant; 0=no damage to plant), SIDSP (rate 250): 80
damage to plant (100=total damage to plant; 0=no damage to plant), SIDSP (rate 500): 80
damage to plant (100=total damage to plant; 0=no damage to plant), SORVU (rate 15): 0
damage to plant (100=total damage to plant; 0=no damage to plant), SORVU (rate 30): 0
damage to plant (100=total damage to plant; 0=no damage to plant), SORVU (rate 60): 0
